In ChEMBL document CHEMBL1649508, “Emergence of quinolone-resistant Bordetella pertussis in Japan” (2009) one finds MIC data, which are given here for 7 compounds.

Values after ≈ are worked out from the molar mass of the structure shown. Some results are limits rather than exact numbers.

What all share (assay type): functional
In assay [1] the test system is Bordetella pertussis. The experiment in a line: Antibacterial activity against quinolone-susceptible Bordetella pertussis BP112 by Etest method.
The test system of assay [2] is Bordetella pertussis. The experiment in a line: Antibacterial activity against quinolone-susceptible Bordetella pertussis BP101 by Etest method.
The test system of assay [3] is Bordetella pertussis. The experiment in a line: Antibacterial activity against […] Bordetella pertussis BP121 by Etest method.
Assay [4] has as its system Bordetella pertussis. The experiment in a line: Antibacterial activity against quinolone-susceptible Bordetella pertussis BP106 by Etest method.
The subject of assay [5] is Bordetella pertussis. The experiment in a line: Antibacterial activity against quinolone-susceptible Bordetella pertussis BP109 by Etest method.
Assay [6] concerns Bordetella pertussis. The experiment in a line: Antibacterial activity against quinolone-susceptible Bordetella pertussis BP111 by Etest method.
Assay [7] has as its system Bordetella pertussis. The experiment in a line: Antibacterial activity against quinolone-susceptible Bordetella pertussis BP113 by Etest method.
Assay [8] has as its system Bordetella pertussis. The experiment in a line: Antibacterial activity against […] Bordetella pertussis BP58 by Etest method.
For assay [9], the system named is Bordetella pertussis. The experiment in a line: Antibacterial activity against […] Bordetella pertussis BP117 by Etest method.
The test system of assay [10] is Bordetella pertussis. The experiment in a line: Antibacterial activity against […] Bordetella pertussis BP122 by Etest method.
Assay [11] has as its system Bordetella pertussis. The experiment in a line: Antibacterial activity against quinolone-susceptible Bordetella pertussis CCUG 30837 by Etest method.
Assay [12] deals with Bordetella pertussis. The experiment in a line: Antibacterial activity against quinolone-susceptible Bordetella pertussis BP128 by Etest method.
In assay [13] the test system is Bordetella pertussis. The experiment in a line: Antibacterial activity against […] Bordetella pertussis BP99 by Etest method.
Assay [14] relates to Bordetella pertussis. The experiment in a line: Antibacterial activity against quinolone-susceptible Bordetella pertussis BP115 by Etest method.
Assay [15] deals with Bordetella pertussis. The experiment in a line: Antibacterial activity against […] Bordetella pertussis BP118 by Etest method.
In assay [16] the test system is Bordetella pertussis. The experiment in a line: Antibacterial activity against […] Bordetella pertussis BP117 by Etest method in presence of efflux pump inhibitor phenyl-arginine-beta-naphthylamide.
The subject of assay [17] is Bordetella pertussis. The experiment in a line: Antibacterial activity against […] Bordetella pertussis BP118 by Etest method in presence of efflux pump inhibitor phenyl-arginine-beta-naphthylamide.
The subject of assay [18] is Bordetella pertussis. The experiment in a line: Antibacterial activity against […] Bordetella pertussis BP121 by Etest method in presence of efflux pump inhibitor phenyl-arginine-beta-naphthylamide.
For assay [19], the system named is Bordetella pertussis. The experiment in a line: Antibacterial activity against […] Bordetella pertussis BP58 by Etest method in presence of efflux pump inhibitor phenyl-arginine-beta-naphthylamide.
Assay [20] concerns Bordetella pertussis. The experiment in a line: Antibacterial activity against […] Bordetella pertussis BP122 by Etest method in presence of efflux pump inhibitor phenyl-arginine-beta-naphthylamide.
In assay [21] the test system is Bordetella pertussis. The experiment in a line: Antibacterial activity against […] Bordetella pertussis BP99 by Etest method in presence of efflux pump inhibitor phenyl-arginine-beta-naphthylamide.
Assay [22] relates to Bordetella pertussis. The experiment in a line: Antibacterial activity against quinolone-susceptible Bordetella pertussis CCUG 30837 by Etest method in presence of efflux pump inhibitor phenyl-arginine-beta-naphthylamide.
Assay [23] relates to Bordetella pertussis. The experiment in a line: Antibacterial activity against quinolone-susceptible Bordetella pertussis BP113 by Etest method in presence of efflux pump inhibitor phenyl-arginine-beta-naphthylamide.

For `O=C(N[C@H](CO)[C@H](O)c1ccc([N+](=O)[O-])cc1)C(Cl)Cl` [CHLORAMPHENICOL], the minimum inhibitory concentration (MIC) in assay [1] was 0.25 µg/mL (≈ 0.774 µM); in [2], 0.25 µg/mL (≈ 0.774 µM); in assay [3], 0.25 µg/mL (≈ 0.774 µM); in assay [4], 0.25 µg/mL (≈ 0.774 µM); in assay [5] it was 0.125 µg/mL (≈ 0.387 µM); in [6], 0.25 µg/mL (≈ 0.774 µM). The MIC in assay [7] came to 0.5 µg/mL (≈ 1.55 µM); in [8] it was 0.5 µg/mL (≈ 1.55 µM); in [9], 0.25 µg/mL (≈ 0.774 µM); in [10], 0.25 µg/mL (≈ 0.774 µM); in [11], 0.5 µg/mL (≈ 1.55 µM); in [12], 0.25 µg/mL (≈ 0.774 µM). In addition, the minimum inhibitory concentration (MIC) was 0.25 µg/mL (≈ 0.774 µM) in assay [13], 0.5 µg/mL (≈ 1.55 µM) in assay [14] and 0.5 µg/mL (≈ 1.55 µM) in assay [15].
For `O=C(O)c1cn(C2CC2)c2cc(N3CCNCC3)c(F)cc2c1=O` [CIPROFLOXACIN], the minimal inhibitory concentration (MIC) in assay [1] worked out at 0.008 µg/mL (≈ 0.0241 µM); in [2], 0.016 µg/mL (≈ 0.0483 µM); in [3] it was 0.125 µg/mL (≈ 0.377 µM); in assay [4], 0.008 µg/mL (≈ 0.0241 µM); in assay [5], 0.008 µg/mL (≈ 0.0241 µM); in [6] it was 0.016 µg/mL (≈ 0.0483 µM). Moreover, the MIC in [7] is 0.008 µg/mL (≈ 0.0241 µM); in assay [8], 0.125 µg/mL (≈ 0.377 µM); in assay [9] it was 0.125 µg/mL (≈ 0.377 µM); in [10], 0.125 µg/mL (≈ 0.377 µM); in assay [11], 0.032 µg/mL (≈ 0.0966 µM); in [12], 0.016 µg/mL (≈ 0.0483 µM). Also, the MIC worked out at 0.125 µg/mL (≈ 0.377 µM) in assay [13], 0.016 µg/mL (≈ 0.0483 µM) in [14] and 0.125 µg/mL (≈ 0.377 µM) in assay [15].
Regarding `COc1c(N2CCNC(C)C2)c(F)cc2c(=O)c(C(=O)O)cn(C3CC3)c12` (stereo not drawn) [GATIFLOXACIN], the MIC turned out to be 0.004 µg/mL (≈ 0.0107 µM) in assay [1]; 0.008 µg/mL (≈ 0.0213 µM) in [2]; 0.032 µg/mL (≈ 0.0852 µM) in assay [3]; 0.004 µg/mL (≈ 0.0107 µM) in assay [4]; 0.004 µg/mL (≈ 0.0107 µM) in [5]; 0.008 µg/mL (≈ 0.0213 µM) in [6]. Further, the MIC in assay [7] was 0.004 µg/mL (≈ 0.0107 µM); in [8], 0.032 µg/mL (≈ 0.0852 µM); in assay [9], 0.032 µg/mL (≈ 0.0852 µM); in assay [10], 0.032 µg/mL (≈ 0.0852 µM); in [11], 0.008 µg/mL (≈ 0.0213 µM); in assay [12], 0.008 µg/mL (≈ 0.0213 µM). The MIC was found to be 0.032 µg/mL (≈ 0.0852 µM) in assay [13], 0.008 µg/mL (≈ 0.0213 µM) in assay [14] and 0.032 µg/mL (≈ 0.0852 µM) in assay [15].
Turning to `C[C@H]1COc2c(N3CCN(C)CC3)c(F)cc3c(=O)c(C(=O)O)cn1c23.C[C@H]1COc2c(N3CCN(C)CC3)c(F)cc3c(=O)c(C(=O)O)cn1c23.O` [LEVOFLOXACIN], the MIC in [1] is 0.008 µg/mL; in assay [2], 0.016 µg/mL; in [3], 0.064 µg/mL; in [4], 0.008 µg/mL; in assay [5], 0.004 µg/mL; in assay [6], 0.008 µg/mL. Besides, the MIC is 0.008 µg/mL in assay [7]; 0.064 µg/mL in assay [8]; 0.064 µg/mL in assay [9]; 0.064 µg/mL in [10]; 0.016 µg/mL in assay [11]; 0.016 µg/mL in assay [12]. Further, the MIC in assay [13] was 0.064 µg/mL; in assay [14], 0.008 µg/mL; in assay [15] it was 0.064 µg/mL.
In the case of `CCn1cc(C(=O)O)c(=O)c2ccc(C)nc21` [NALIDIXIC ACID], the MIC in assay [16] was 64 µg/mL; in assay [1], 1 µg/mL (≈ 4.31 µM); in assay [17], 64 µg/mL; in assay [2] it was 2 µg/mL (≈ 8.61 µM); in [3] it was over 256 µg/mL; in [18], 32 µg/mL. The MIC in [4] was 1 µg/mL (≈ 4.31 µM); in assay [5], 2 µg/mL (≈ 8.61 µM); in assay [19] it was 64 µg/mL; in [6], 2 µg/mL (≈ 8.61 µM); in assay [7], 2 µg/mL (≈ 8.61 µM); in assay [8], over 256 µg/mL. Moreover, the minimum inhibitory concentration (MIC) in [9] is over 256 µg/mL; in assay [10], over 256 µg/mL; in assay [20], 32 µg/mL; in assay [21] it was 32 µg/mL; in assay [22], 0.25 µg/mL; in assay [11], 2 µg/mL (≈ 8.61 µM). Further, the MIC was 1 µg/mL (≈ 4.31 µM) in assay [12]; over 256 µg/mL in [13]; 1 µg/mL (≈ 4.31 µM) in [14]; 0.25 µg/mL in assay [23]; over 256 µg/mL in assay [15].
Take `CCn1cc(C(=O)O)c(=O)c2cc(F)c(N3CCNCC3)cc21` [NORFLOXACIN]: the MIC was 0.064 µg/mL (≈ 0.2 µM) in [1]; 0.032 µg/mL (≈ 0.1 µM) in assay [2]; 1 µg/mL (≈ 3.13 µM) in assay [3]; 0.064 µg/mL (≈ 0.2 µM) in [4]; 0.064 µg/mL (≈ 0.2 µM) in assay [5]; 0.064 µg/mL (≈ 0.2 µM) in assay [6]. In addition, the minimum inhibitory concentration (MIC) was 0.064 µg/mL (≈ 0.2 µM) in assay [7]; 1 µg/mL (≈ 3.13 µM) in assay [8]; 0.5 µg/mL (≈ 1.57 µM) in assay [9]; 1 µg/mL (≈ 3.13 µM) in [10]; 0.125 µg/mL (≈ 0.391 µM) in assay [11]; 0.064 µg/mL (≈ 0.2 µM) in [12]. Moreover, the minimum inhibitory concentration (MIC) turned out to be 1 µg/mL (≈ 3.13 µM) in assay [13], 0.064 µg/mL (≈ 0.2 µM) in [14] and 0.5 µg/mL (≈ 1.57 µM) in [15].
Regarding `C[C@@H]1CN(c2c(F)c(N)c3c(=O)c(C(=O)O)cn(C4CC4)c3c2F)C[C@H](C)N1` [SPARFLOXACIN], the minimal inhibitory concentration (MIC) in [1] was 0.004 µg/mL (≈ 0.0102 µM); in assay [2], 0.008 µg/mL (≈ 0.0204 µM); in [3], 0.064 µg/mL (≈ 0.163 µM); in [4] it was 0.004 µg/mL (≈ 0.0102 µM); in [5], 0.004 µg/mL (≈ 0.0102 µM); in [6], 0.008 µg/mL (≈ 0.0204 µM). Also, the MIC worked out at 0.004 µg/mL (≈ 0.0102 µM) in [7]; 0.125 µg/mL (≈ 0.319 µM) in assay [8]; 0.064 µg/mL (≈ 0.163 µM) in [9]; 0.064 µg/mL (≈ 0.163 µM) in [10]; 0.016 µg/mL (≈ 0.0408 µM) in assay [11]; 0.008 µg/mL (≈ 0.0204 µM) in assay [12]. Besides, the MIC in assay [13] is 0.032 µg/mL (≈ 0.0815 µM); in assay [14], 0.004 µg/mL (≈ 0.0102 µM); in assay [15], 0.064 µg/mL (≈ 0.163 µM).
